According to the supplement of paper PMC10307832:

Columns and labels:
Experiment in all cases: relative viability (nuclei count vs DMSO), 5 days (fraction); higher = more cells survive
Erlotinib + Foretinib = compound: C#Cc1cccc(Nc2ncnc3cc(OCCOC)c(OCCOC)cc23)c1 [Erlotinib] + COc1cc2c(Oc3ccc(NC(=O)C4(C(=O)Nc5ccc(F)cc5)CC4)cc3F)ccnc2cc1OCCCN1CCOCC1 [Foretinib] (partner 0.25 µM)
Method in brief: (§1)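 Relative viability equals treated-well nuclei counts divided by vehicle-well nuclei counts. Counts came from 4× images of lung cancer cell lines grown in 1536-well plates for 5 days after pin-tool dosing on the day after seeding. Dosing used one drug alone or a fixed anchor-drug dose plus five library-drug doses (not always all listed) in √10 steps, and values are medians of duplicate plates.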

AT9283 + Dasatinib = compound: O=C(Nc1c[nH]nc1-c1nc2ccc(CN3CCOCC3)cc2[nH]1)NC1CC1 [AT9283] + Cc1nc(Nc2ncc(C(=O)Nc3c(C)cccc3Cl)s2)cc(N2CCN(CCO)CC2)n1 [Dasatinib] (partner 0.075 µM)
Method in brief: as §1

AT9283 + Luminespib = compound: O=C(Nc1c[nH]nc1-c1nc2ccc(CN3CCOCC3)cc2[nH]1)NC1CC1 [AT9283] + CCNC(=O)c1noc(-c2cc(C(C)C)c(O)cc2O)c1-c1ccc(CN2CCOCC2)cc1 [Luminespib] (partner 0.01 µM)
Method in brief: as §1

AT9283 + Tozasertib = compound: O=C(Nc1c[nH]nc1-c1nc2ccc(CN3CCOCC3)cc2[nH]1)NC1CC1 [AT9283] + Cc1cc(Nc2cc(N3CCN(C)CC3)nc(Sc3ccc(NC(=O)C4CC4)cc3)n2)n[nH]1 [Tozasertib] (partner 0.1 µM)
Method in brief: as §1

Erlotinib + Navitoclax = compound: C#Cc1cccc(Nc2ncnc3cc(OCCOC)c(OCCOC)cc23)c1 [Erlotinib] + CC1(C)CCC(c2ccc(Cl)cc2)=C(CN2CCN(c3ccc(C(=O)NS(=O)(=O)c4ccc(N[C@H](CCN5CCOCC5)CSc5ccccc5)c(S(=O)(=O)C(F)(F)F)c4)cc3)CC2)C1 [Navitoclax] (partner 0.5 µM)
Method in brief: as §1

| Cell Line | relative viability (Erlotinib + Foretinib; first compound 0.02 µM) | relative viability (Erlotinib + Foretinib; first compound 0.2 µM) | relative viability (Erlotinib + Foretinib; first compound 0.6325 µM) | relative viability (Erlotinib + Foretinib; first compound 2 µM) | relative viability (AT9283 + Dasatinib; first compound 0.003 µM) | relative viability (AT9283 + Dasatinib; first compound 0.03 µM) | relative viability (AT9283 + Dasatinib; first compound 0.09487 µM) | relative viability (AT9283 + Dasatinib; first compound 0.3 µM) | relative viability (AT9283 + Luminespib; first compound 0.003 µM) | relative viability (AT9283 + Luminespib; first compound 0.03 µM) | relative viability (AT9283 + Luminespib; first compound 0.09487 µM) | relative viability (AT9283 + Luminespib; first compound 0.3 µM) | relative viability (AT9283 + Tozasertib; first compound 0.003 µM) | relative viability (AT9283 + Tozasertib; first compound 0.03 µM) | relative viability (AT9283 + Tozasertib; first compound 0.09487 µM) | relative viability (AT9283 + Tozasertib; first compound 0.3 µM) | relative viability (Erlotinib + Navitoclax; first compound 0.02 µM) | relative viability (Erlotinib + Navitoclax; first compound 0.2 µM) | relative viability (Erlotinib + Navitoclax; first compound 0.6325 µM) | relative viability (Erlotinib + Navitoclax; first compound 2 µM) |
| --- | --- | --- | --- | --- | --- | --- | --- | --- | --- | --- | --- | --- | --- | --- | --- | --- | --- | --- | --- | --- |
| LC-2-ad | 0.876 | 0.658 | 0.665 | 0.528 | 0.456 | 0.291 | 0.177 | 0.187 | 0.918 | 0.594 | 0.357 | 0.263 | 0.422 | 0.285 | 0.321 | 0.25 | 0.488 | 0.472 | 0.397 | 0.229 |
| NCI-H2085 | 1.14 | 0.739 | 0.649 | 0.559 | 0.231 | 0.238 | 0.224 | 0.2 | 0.585 | 0.477 | 0.403 | 0.341 | 0.835 | 0.832 | 0.5 | 0.387 | 1.23 | 0.988 | 0.893 | 0.808 |
| EMC-BAC-2 | 1.05 | 0.778 | 0.877 | 0.898 | 0.273 | 0.245 | 0.131 | 0.142 | 1.21 | 0.358 | 0.318 | 0.289 | 0.283 | 0.192 | 0.198 | 0.133 | 1.13 | 1.04 | 0.974 | 0.906 |
| NCI-H1395 | 1.04 | 0.906 | 1.13 | 0.975 | 0.434 | 0.424 | 0.292 | 0.287 | 0.639 | 0.649 | 0.397 | 0.418 | 0.61 | 0.553 | 0.399 | 0.355 | 1.09 | 1.02 | 1.32 | 1.13 |
| NCI-H322M | 0.925 | 0.619 | 0.565 | 0.45 | 0.257 | 0.236 | 0.224 | 0.223 | 0.864 | 0.541 | 0.405 | 0.41 | 0.499 | 0.511 | 0.395 | 0.443 | 1.12 | 1.09 | 0.77 | 0.468 |
| SK-MES-1 | 1.03 | 0.635 | – | 0.357 | 0.56 | 0.25 | 0.0729 | 0.0952 | 0.885 | 0.821 | 0.405 | 0.22 | 1 | 0.679 | 0.254 | 0.125 | 1.35 | 1.21 | – | 0.574 |
| NCI-H727 | 0.847 | 0.75 | 0.813 | 0.726 | 0.423 | 0.467 | 0.314 | 0.245 | 0.253 | 0.257 | 0.261 | 0.281 | 0.589 | 0.567 | 0.457 | 0.444 | 0.447 | 0.393 | 0.384 | 0.347 |
| NCI-H1650 | 0.747 | 0.594 | 0.697 | 0.699 | 0.347 | 0.301 | 0.216 | 0.171 | 0.21 | 0.182 | 0.219 | 0.231 | 0.386 | 0.328 | 0.36 | 0.35 | 1.15 | 1.23 | 1.14 | 0.924 |
